In ChEMBL document CHEMBL3046606, “Synthesis and antifungal activity of novel sulfone derivatives containing 1,3,4-oxadiazole moieties” (Molecules, 2011):

Tested on: Cytospora
Assay: Antifungal activity against Cytospora mandshurica at 50 ug/ml after 5 days by poison plate technique
Assay type: functional
Conditions: 120 h

SMILES: COc1ccccc1-c1nnc(S(C)(=O)=O)o1
- inhibition at 50 µg/mL: 91.3%

SMILES: Cc1ccccc1-c1nnc(S(C)(=O)=O)o1
- inhibition at 50 µg/mL: 99.3%
